{
  "source": "patent US8076449B2",
  "about": "“Therapeutic agents of colivelin for neurodegenerative diseases” (Tomohiro Chiba, priority 2004, dated 2011)",
  "key": {"[1]": {"test_system": "F11 cells transformed with G93R-SOD1", "assay": "Neuronal cell death induced by G93R-SOD1 gene, Trypan blue exclusion assay", "assay_type": "cell-based, rat/mouse hybrid", "protocol": "(§1) F11 cell, the hybrid cell of rat embryonic day 13 (E13) primary cultured neuronal cell with mouse neuroblastoma NTG18 cell, was cultured in Ham's F-12 medium (Life Technologies, Gaithersburg, Md.) containing 18% FBS (Hyclone, Logan, Utah) and antibiotics as previously reported (Platika D, et al., 1985, Proc Natl Acad Sci USA 82: 3499-3503; Yamatsuji T, et al., 1996, Science 272: 1349-1352; Huang P, et al., 2000, Mol Hum Reprod 6: 1069-1078; and Niikura T, et al., 2001, J Neuroscience, 21: 1902-1910).\n(§2) (i) Test of Neuronal Cell Death Induced by M146L-PS1 or G93R-SOD1 Gene\nThe F11 cells (7×10^4 cells/well, 6-well plate, 12- to 16-hour culture in Ham's F-12 (18% FBS) medium) were transformed with M146L-PS1 or G93R-SOD1 gene by lipofection (0.5 μg of cDNA; 1 μl of LipofectAMINE; 2 μl of PLUS Reagent) under serum-free conditions for 3 hours and cultured for 2 hours in Ham's F-12 (18% FBS) medium. […] After 72 hours of the transformation, cell mortality was measured by Trypan blue exclusion assay as previously reported (Hashimoto Y, et al., 2001, J Neurosci 21: 9235-9245; and Hashimoto Y, et al, 2001, Proc Natl Acad Sci USA 98: 6336-6341).\nADNF has already been reported to protect neurons from toxicity caused by SOD1 mutations. […] After 72 hours of the transformation, cell mortality was measured by Trypan blue exclusion assay (FIG. 3)."}, "[2]": {"test_system": "F11 cells transformed with M146L-PS1", "assay": "Neuronal cell death induced by M146L-PS1 gene, Trypan blue exclusion assay", "assay_type": "cell-based, rat/mouse hybrid", "settings": "M146L-PS1, 72 hours after transformation", "protocol": "as §1, §2\nThe F11 cells (7×10^4 cells/well, 6-well plate, 12- to 16-hour culture in Ham's F-12 (18% FBS) medium) were transformed with M146L-PS1 or G93R-SOD1 gene by lipofection (0.5 μg of cDNA; 1 μl of LipofectAMINE; 2 μl of PLUS Reagent) under serum-free conditions for 3 hours and cultured for 2 hours in Ham's F-12 (18% FBS) medium. The medium was replaced by Ham's F-12 (10% FBS) in the presence or absence of varying concentrations (100 aM, 1 fM, 10 fM, 100 fM, 1 pM, 10 pM, 100 pM, 1 nM, 10 nM, or 100 nM) of colivelin or AGA-CBR-HNG17 peptides. After 72 hours of the transformation, cell mortality was measured by Trypan blue exclusion assay as previously reported (Hashimoto Y, et al., 2001, J Neurosci 21: 9235-9245; and Hashimoto Y, et al, 2001, Proc Natl Acad Sci USA 98: 6336-6341). […]"}, "G93A-SOD1 Tg mice": {"test_system": "G93A-SOD1 Tg mice", "assay": "Motor performance (rotarod), onset and survival test with ALS model animal, icv administration (Example 3)", "assay_type": "in vivo, mouse", "from_the_text": "Transgenic (Tg) mice (hereinafter, referred to as “G93A-SOD1 Tg mice”) expressing human FALS-associated SOD1 mutant gene with a mutation (G93A) from Gly to Ala at 93 position are the best-established mouse model of ALS (Gurney M E, et al., 1994, Science 264: 1772-1775; and Gurney M E, et al., 1997, J Neurol Sci 152 Suppl 1: S67-73). The G93A-SOD1 Tg mice manifest symptoms quite similar to human ALS after normal birth and rapidly result in death in all cases. The G93A-SOD1 Tg mice, which have the onset of the regression of motor neurons similar clinically and pathologically to that in human ALS, have been known so far to be the most excellent model of ALS throughout the world and employed for identifying effective candidate drugs for ALS patients.\nThe model mice were used to confirm the in vivo effect of colivelin against neurotoxicity caused by G93A-SOD1.\nThe G93A-SOD1 Tg mice were purchased from Jackson Laboratories (Bar Harbor, Me.). The G93A-SOD1 Tg mice were kept as hemizygote mice by the mating thereof with C57BL/6J mice (CLEA Japan, Inc). The mice were raised in an SPF room (specific pathogen-free animal facility; 23±1° C., 55±5% humidity) in the 12-hour light/12-hour dark cycle (7:00 AM-7:00 PM). The mice were freely fed with gamma ray-irradiated Picolab Rodent Diet 20 (PMI Feeds Inc. St. Louis, Mo.) and sodium hyposulfite (5 ppm)-containing aseptic deionized distilled water.\nThe G93A-SOD1 Tg mice at 10 weeks of age were put under anesthesia by the intraperitoneal injection of 10% Nembutal (sodium pentobarbital; 60 mg/kg). A hole was made on the cranial bone with a drill on a sterotaxic surgery apparatus to aseptically transplant the C315GS-4 cannula system for mouse (Plastics One Inc., Roanoke, Va.) to the mouse left lateral ventricle. The cannula was fixed with a surgical adhesive and dental cement.\nThe mice at 80 days of age were divided at random to a saline (control)-administered group (n=7), 100 fmol colivelin-administered group (n=6), 10 pmol colivelin-administered group (n=7), 1 nmol colivelin-administered group (n=7), and 30 nmol ADNF-administered group (n=5). Until the end of the experiment, the control group received the intracerebroventricular (icv) injection of 3 μl of saline each day, while the colivelin-administered groups and the ADNF-administered group received the icy injection of 3 μl of colivelin (100 f mol, 10 pmol, or 1 nmol) and 3 μI of 30 nmol ADNF, respectively. In this context, colivelin and ADNF were separately dissolved in a saline for the injection. The injection was performed with the cannula in C315IS-4 connected to Hamilton syringe through a cannula tube (C232, PESO/Thin wall, Plastic One).\nThe motor function (motor performance) was evaluated weekly with a rotarod (CLEA Japan Inc). After the cannulation, the mice were acclimated to the rotarod for 2 days. The mice were placed onto a rotating rod at a speed of 5 rpm, and the time for which each mouse could remain on the rod was automatically detected. The test was conducted according to the protocol wherein the test was completed as a score of 7 minutes if the mouse remained on the rod for 7 minutes (Li M, et al., 2000, Science 288: 335-339; and Kaspar B K, et al., 2003, Science 301: 839-842). Disease onset was defined as the first day when the mouse could not remain on the rotarod for 7 minutes.\nDeath was defined when the mouse was unable to right itself within 30 seconds after being placed on its back (Li M, et al., op. cit)."}, "[3]": {"settings": "100 fmol colivelin icv each day"}},
  "note": "Entries after “also recorded” stand apart in the source; their conditions may differ. Ends that are not written are not given here.",
  "data": [
    {"sequence": "PAGASRLLLLTGEIDLP [AGA-C8R-HNG17, Pro-Ala-Gly-Ala-Ser-Arg-Leu-Leu-Leu-Leu-Thr-Gly-Glu-Ile-Asp-Leu-Pro, reference compound]", "values": [
      {"measurement": "neuroprotective effect on cell death induced by SOD1 mutant", "setting": "[1]; varying concentrations 100 aM to 100 nM", "value": "could not protect; also recorded: not observed"},
      {"measurement": "concentration of complete protection against cell death induced by mutant PS1", "setting": "[2]", "value": 10, "unit": "pM"}
    ]},
    {"sequence": "SALLRSIPAPAGASRLLLLTGEIDLP [colivelin]", "values": [
      {"measurement": "concentration completely suppressing cell death induced by G93R-SOD1", "setting": "[1]; 72 hours after transformation", "value": 1, "unit": "pM"},
      {"measurement": "concentration completely suppressing cell death induced by mutant PS1", "setting": "[2]", "value": 100, "unit": "fM"},
      {"measurement": "mean survival days", "setting": "G93A-SOD1 Tg mice; 10 pmol colivelin icv each day", "value": 159.4, "unit": "days"},
      {"measurement": "prolongation of life span", "setting": "G93A-SOD1 Tg mice; 10 pmol colivelin icv each day, versus control", "value": 11.7, "unit": "%"},
      {"measurement": "delay of the disease onset", "setting": "G93A-SOD1 Tg mice; 1 nmol colivelin icv each day", "value": "approximately 17 day"},
      {"measurement": "mean survival days", "setting": "G93A-SOD1 Tg mice; 1 nmol colivelin icv each day", "value": 156.7, "unit": "days"},
      {"measurement": "protective action on motor function (rotarod)", "setting": "G93A-SOD1 Tg mice; 1 nmol colivelin icv each day", "value": "most potent protective action"},
      {"measurement": "mean survival days", "setting": "G93A-SOD1 Tg mice; [3]", "value": 153.3, "unit": "days"},
      {"measurement": "time of deterioration of motor function (rotarod)", "setting": "G93A-SOD1 Tg mice; [3]", "value": "approximately 120 days"},
      {"measurement": "recovery of motor function", "setting": "G93A-SOD1 Tg mice; experiments using ALS model mice (summary statement)", "value": "approximately 70%"}
    ]},
    {"sequence": "SALLRSIPA [ADNF, reference compound]", "values": [
      {"measurement": "mean survival days", "setting": "G93A-SOD1 Tg mice; 30 nmol ADNF icv each day", "value": 145.0, "unit": "days"},
      {"measurement": "time up to which motor function was maintained (rotarod)", "setting": "G93A-SOD1 Tg mice; 30 nmol ADNF icv each day", "value": "approximately 130 days"}
    ]}
  ]
}
